Legend:
oilfield SRB consortium = assay: Biocidal efficacy against SRB under high temperature and sulfide-rich conditions; assay type: cell-based, sulfate reducing bacteria (SRB); details: alone or in the combination, 80° C. anaerobic, daily challenge with SRB and 10 ppm sulfide
Protocol: The synergy indexes reported in the following examples are calculated using the following equation: Synergy Index=Ca/CA+Cb/CB where Ca: Concentration of biocide A required to achieve a certain level or complete bacterial kill when used in combination; CA: Concentration of biocide A required to achieve a certain level or complete bacterial kill when used alone; Cb: Concentration of biocide B required to achieve a certain level or complete bacterial kill when used in combination; and CB: Concentration of biocide B required to achieve a certain level or complete bacterial kill when used alone. […] In the examples below, aliquots of the biocide-treated samples are removed at predetermined time points and the biocide concentration required to achieve a certain level or complete bacterial kill is determined by culture-based methods including serial dilution. […] After incubation for 2 h the biocidal efficacy is evaluated against the field SRB consortium at 40° C. for 2 h. After incubation for 7 days the biocidal efficacy are evaluated again for 24 h. The biocidal efficacy is determined by the lowest testing biocide dosage concentration required to achieve a 3 log 10 or greater bacterial reduction, of both 2 hours and 7 days heat and SRB-sulfide exposure. Synergy Index is then calculated. […]

[1] = test system: oil field isolated anaerobic SRB consortium; assay: Biocidal efficacy (MBC) against SRB, 40° C. for 24 hour; assay type: cell-based, sulfate reducing bacteria (SRB); details: alone or in the combination, minimum tested biocide concentration for bacteria kill, 10^6 to 10^7 CFU/mL
Protocol: The synergy indexes reported in the following examples are calculated using the following equation: Synergy Index=Ca/CA+Cb/CB where Ca: Concentration of biocide A required to achieve a certain level or complete bacterial kill when used in combination; CA: Concentration of biocide A required to achieve a certain level or complete bacterial kill when used alone; Cb: Concentration of biocide B required to achieve a certain level or complete bacterial kill when used in combination; and CB: Concentration of biocide B required to achieve a certain level or complete bacterial kill when used alone. A synergy index (SI) of 1 indicates additivity, a synergy index of less than 1 indicates synergy, and a synergy index greater than 1 indicates antagonism. Various methods known to those skilled in the art can be used for evaluating biocidal efficacy. In the examples below, aliquots of the biocide-treated samples are removed at predetermined time points and the biocide concentration required to achieve a certain level or complete bacterial kill is determined by culture-based methods including serial dilution. […] After the mixtures are incubated at 40° C. for 24 hour, the biocidal efficacy is determined by minimum tested biocide concentration for bacteria kill in the aliquots (MBC). […]

Row | SMILES | Dosage required for 3log10 bacterial reduction of both 2 h and 7 day heat and SRB-sulfide exposure (active ppm) TA (oilfield SRB consortium; concentration of TA) [active ppm] | MBC (active ppm) TA ([1]; concentration of TA) [active ppm] | Dosage required for 3log10 bacterial reduction of both 2 h and 7 day heat and SRB-sulfide exposure (active ppm) BNPD (oilfield SRB consortium; concentration of BNPD) [active ppm] | MBC (active ppm) BNPD ([1]; concentration of BNPD) [active ppm]
1 | O=[N+]([O-])C(CO)(CO)CO [0:1, tris(hydroxymethyl)nitromethane] | 360.0 | 36.5 | – | –
2 | O=[N+]([O-])C(Br)(CO)CO [1:0, 2-bromo-2-nitro-1,3-propanediol] | – | – | 180.0 | 3.5
